Tests used:
Experiment in all cases: acid ninhydrin cysteine assay, A560
SaCysK [1] = biological target: T1, SaCysK (Staphylococcus aureus, UniProt P63871); type: biochemical; conditions: substrate inhibition constant, MOPS, 37 °C, no glycerol
T1 sequence (P63871 1-310): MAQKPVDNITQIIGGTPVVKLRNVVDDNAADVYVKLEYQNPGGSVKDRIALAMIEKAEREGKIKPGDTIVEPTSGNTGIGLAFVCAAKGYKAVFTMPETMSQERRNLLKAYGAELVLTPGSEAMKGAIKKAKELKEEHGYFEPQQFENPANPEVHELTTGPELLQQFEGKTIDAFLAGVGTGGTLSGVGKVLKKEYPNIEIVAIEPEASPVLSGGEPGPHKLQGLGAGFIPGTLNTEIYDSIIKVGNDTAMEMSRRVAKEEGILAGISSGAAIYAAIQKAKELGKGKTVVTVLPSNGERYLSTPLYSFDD

SaCysK [2] = biological target: T1, SaCysK; conditions: 10 mM OAS; MOPS; 37 °C; no glycerol
NgCysK = NgCysK (Neisseria gonorrhoeae, UniProt Q5F9Q2); conditions: read-out: Khalf; 10 mM OAS; MOPS; 37 °C; no glycerol; cooperative
NgCysK, sequence (Q5F9Q2 1-310): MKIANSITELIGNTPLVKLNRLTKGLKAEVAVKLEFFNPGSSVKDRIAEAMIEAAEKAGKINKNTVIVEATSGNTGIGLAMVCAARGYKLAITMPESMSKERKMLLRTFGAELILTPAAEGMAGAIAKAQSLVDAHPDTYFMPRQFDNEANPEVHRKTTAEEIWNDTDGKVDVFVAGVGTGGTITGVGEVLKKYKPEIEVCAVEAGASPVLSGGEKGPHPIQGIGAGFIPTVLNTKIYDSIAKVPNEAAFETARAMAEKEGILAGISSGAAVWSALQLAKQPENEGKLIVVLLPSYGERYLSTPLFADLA

SMILES | Ki (SaCysK [1]; 15 mM Na2S) | Km (SaCysK [2]) | Km (NgCysK) | Ki (SaCysK [1]; 10 mM OAS)
CC(=O)OC[C@H](N)C(=O)O [O-acetylserine] | 6.265 ± 2.489 mM | – | – | –
S [sodium sulfide] | – | 2.31 ± 3.57 mM | 23.6 ± 10.8 mM | 15.970 ± 12.793 mM

— paper doi:10.1101/2025.03.26.645513v1 (biorxiv, 2025)
